{
  "source": "patent US7034036B2",
  "about": "“Inhibitors of ABC drug transporters at the blood-brain barrier” (Pain Therapeutics, Inc., priority 2000, dated 2006)",
  "key": {"PGP1a": {"test_system": "PGP1a", "assay": "Vanadate-sensitive PGP ATPase activity in PGP membranes", "assay_type": "biochemical", "experimental": "The test substances were incubated in the membranes and supplemented with MgATP, with and without sodium orthovanadate present. Orthovanadate inhibits PGP by trapping MgADP in the nucleotide binding site. Thus, the ATPase activity measured in the presence of orthovanadate represents non-PGP ATPase activity and was subtracted from the activity generated without orthovanadate to yield vanadate-sensitive ATPase activity.\nATPase assays were conducted in 96-well microtiter plates. A 0.06 ml reaction mixture containing 40 μg PGP membranes, test substance, and 4 mM MgATP, in buffer containing 50 mM Tris-MES, 2 mM EGTA, 50 mM KCl, 2 mM dithiothreitol, and 5 mM sodium azide, plus organic solvent was incubated at 37° C. for 20 minutes. […] Identical reaction mixtures containing 100 μM sodium orthovanadate were assayed in parallel. The reactions were stopped by the addition of 30 μl of 10% SDS+Antifoam A. The incubations were followed with addition of 200 μl of 35 mM Ammonium Molybdate in 15 mM Zinc Acetate:10% Ascorbic Acid (1:4) and incubated for an additional 20 minutes at 37° C. Additionally, 0.06 ml aliquots of potassium phosphate standards prepared in the buffer described above, were incubated in the plates containing the test and control substances, with SDS and detection reagent added. The liberation of inorganic phosphate was detected by its absorbance at 800 nm and quantitated by comparing the absorbance to a phosphate standard curve. The concentration dependence of the PGP was analyzed for evidence of saturation of PGP-ATPase activity, and apparent kinetic parameters were calculated by non-linear regression."}, "mice [1]": {"test_system": "mice", "assay": "Tail flick anti-nociception, naltrexone begun at day 6 in mice dosed daily with morphine (Groups A, B)", "assay_type": "in vivo", "settings": "morphine 3 mg/kg daily", "experimental": "40 male mice were randomized into 5 groups of eight. All mice were administered single 3 mg/kg morphine daily (b.i.d.), beginning on Day 1.\nIn a second series of experiments, 40 female mice were randomized into 5 groups of eight. All mice were administered single 3 mg/kg morphine daily (b.i.d.), beginning on Day 1.\n3 mg/kg of morphine was administered as a single bolus dose to each mouse on group 1 on a daily basis. Mice in Group 2 were also administered 3 mg/kg morphine daily."}, "mice [2]": {"test_system": "mice", "assay": "Tail flick anti-nociception, naltrexone given with morphine from day 1 (Groups C, D, combined analysis)", "assay_type": "in vivo", "set-up": "Enhancement of Latency (tail flick) / Enhancement of Latency by Naltrexone (tail flick): unit not given here", "experimental": "In a third series of experiments, 40 male mice were randomized into 5 groups of eight. All mice were administered single 3 mg/kg morphine daily (b.i.d.), beginning on Day 1.\nIn a final series of experiments, 40 female mice were randomized into 5 groups of eight. All mice were administered single 3 mg/kg morphine daily (b.i.d.), beginning on Day 1."}},
  "note": "“Also recorded” adds a separate entry of the source.",
  "data": [
    {"smiles": "O=C1CC[C@@]2(O)[C@H]3Cc4ccc(O)c5c4[C@@]2(CCN3CC2CC2)[C@H]1O5", "note": "[Naltrexone, naltrexone]", "values": [
      {"measurement": "Vanadate-sensitive ATPase Activity", "setting": "PGP1a; 100 μM", "result": 4.6, "unit": "nmol/mg/min"},
      {"measurement": "Inhibition of the ATPase associated with PGP1a", "setting": "PGP1a; semi-quantitative assay", "result": "shown to inhibit"},
      {"measurement": "Naltrexone effect on tail flick latency", "setting": "mice [1]; female mice, naltrexone 3-3000 ng/kg b.i.d. from day 6, Days 6, 8, 10", "result": "significantly different from zero in enhancing latency"},
      {"measurement": "Effect on morphine tolerance", "setting": "mice [1]; morphine-tolerant mice, naltrexone 3 ng/kg daily from Day 6", "result": "broke the tolerance; also recorded: breaks tolerance"},
      {"measurement": "Enhancement of Latency by Naltrexone (tail flick)", "setting": "mice [2]; Table 15, combined analysis (title prints Female Mice), Group 2: morphine 3 mg/kg + naltrexone 3 ng/kg b.i.d., Day 1", "result": 12.8},
      {"measurement": "Enhancement of Latency by Naltrexone (tail flick)", "setting": "mice [2]; Table 15, combined analysis (title prints Female Mice), Group 2: morphine 3 mg/kg + naltrexone 3 ng/kg b.i.d., Day 3", "result": 9.3},
      {"measurement": "Enhancement of Latency by Naltrexone (tail flick)", "setting": "mice [2]; Table 15, combined analysis (title prints Female Mice), Group 2: morphine 3 mg/kg + naltrexone 3 ng/kg b.i.d., Day 5", "result": 5.9},
      {"measurement": "Enhancement of Latency by Naltrexone (tail flick)", "setting": "mice [2]; Table 15, combined analysis (title prints Female Mice), Group 2: morphine 3 mg/kg + naltrexone 3 ng/kg b.i.d., Day 8", "result": 5.8},
      {"measurement": "Enhancement of Latency by Naltrexone (tail flick)", "setting": "mice [2]; Table 15, combined analysis (title prints Female Mice), Group 2: morphine 3 mg/kg + naltrexone 3 ng/kg b.i.d., Day 10", "result": 3.5},
      {"measurement": "Enhancement of Latency by Naltrexone (tail flick)", "setting": "mice [2]; Table 15, combined analysis (title prints Female Mice), Group 3: morphine 3 mg/kg + naltrexone 30 ng/kg b.i.d., Day 1", "result": 12.4},
      {"measurement": "Enhancement of Latency by Naltrexone (tail flick)", "setting": "mice [2]; Table 15, combined analysis (title prints Female Mice), Group 3: morphine 3 mg/kg + naltrexone 30 ng/kg b.i.d., Day 3", "result": 10.0},
      {"measurement": "Enhancement of Latency by Naltrexone (tail flick)", "setting": "mice [2]; Table 15, combined analysis (title prints Female Mice), Group 3: morphine 3 mg/kg + naltrexone 30 ng/kg b.i.d., Day 5", "result": 7.2},
      {"measurement": "Enhancement of Latency by Naltrexone (tail flick)", "setting": "mice [2]; Table 15, combined analysis (title prints Female Mice), Group 3: morphine 3 mg/kg + naltrexone 30 ng/kg b.i.d., Day 8", "result": 4.9},
      {"measurement": "Enhancement of Latency by Naltrexone (tail flick)", "setting": "mice [2]; Table 15, combined analysis (title prints Female Mice), Group 3: morphine 3 mg/kg + naltrexone 30 ng/kg b.i.d., Day 10", "result": 6.6},
      {"measurement": "Enhancement of Latency by Naltrexone (tail flick)", "setting": "mice [2]; Table 15, combined analysis (title prints Female Mice), Group 4: morphine 3 mg/kg + naltrexone 300 ng/kg b.i.d., Day 1", "result": 15.6},
      {"measurement": "Enhancement of Latency by Naltrexone (tail flick)", "setting": "mice [2]; Table 15, combined analysis (title prints Female Mice), Group 4: morphine 3 mg/kg + naltrexone 300 ng/kg b.i.d., Day 3", "result": 12.7},
      {"measurement": "Enhancement of Latency by Naltrexone (tail flick)", "setting": "mice [2]; Table 15, combined analysis (title prints Female Mice), Group 4: morphine 3 mg/kg + naltrexone 300 ng/kg b.i.d., Day 5", "result": 6.8},
      {"measurement": "Enhancement of Latency by Naltrexone (tail flick)", "setting": "mice [2]; Table 15, combined analysis (title prints Female Mice), Group 4: morphine 3 mg/kg + naltrexone 300 ng/kg b.i.d., Day 8", "result": 4.8},
      {"measurement": "Enhancement of Latency by Naltrexone (tail flick)", "setting": "mice [2]; Table 15, combined analysis (title prints Female Mice), Group 4: morphine 3 mg/kg + naltrexone 300 ng/kg b.i.d., Day 10", "result": 6.0},
      {"measurement": "Enhancement of Latency by Naltrexone (tail flick)", "setting": "mice [2]; Table 15, combined analysis (title prints Female Mice), Group 5: morphine 3 mg/kg + naltrexone 3000 ng/kg b.i.d., Day 1", "result": 12.9},
      {"measurement": "Enhancement of Latency by Naltrexone (tail flick)", "setting": "mice [2]; Table 15, combined analysis (title prints Female Mice), Group 5: morphine 3 mg/kg + naltrexone 3000 ng/kg b.i.d., Day 3", "result": 11.3},
      {"measurement": "Enhancement of Latency by Naltrexone (tail flick)", "setting": "mice [2]; Table 15, combined analysis (title prints Female Mice), Group 5: morphine 3 mg/kg + naltrexone 3000 ng/kg b.i.d., Day 5", "result": 7.7},
      {"measurement": "Enhancement of Latency by Naltrexone (tail flick)", "setting": "mice [2]; Table 15, combined analysis (title prints Female Mice), Group 5: morphine 3 mg/kg + naltrexone 3000 ng/kg b.i.d., Day 8", "result": 6.2},
      {"measurement": "Enhancement of Latency by Naltrexone (tail flick)", "setting": "mice [2]; Table 15, combined analysis (title prints Female Mice), Group 5: morphine 3 mg/kg + naltrexone 3000 ng/kg b.i.d., Day 10", "result": 7.0},
      {"measurement": "Enhancement of Latency by Naltrexone (tail flick)", "setting": "mice [2]; female mice, Group 2: morphine 3 mg/kg + naltrexone 3 ng/kg b.i.d. from day 1, Day 1", "result": 12.2},
      {"measurement": "Enhancement of Latency by Naltrexone (tail flick)", "setting": "mice [2]; female mice, Group 2: morphine 3 mg/kg + naltrexone 3 ng/kg b.i.d. from day 1, Day 3", "result": 11.0},
      {"measurement": "Enhancement of Latency by Naltrexone (tail flick)", "setting": "mice [2]; female mice, Group 2: morphine 3 mg/kg + naltrexone 3 ng/kg b.i.d. from day 1, Day 5", "result": 4.3},
      {"measurement": "Enhancement of Latency by Naltrexone (tail flick)", "setting": "mice [2]; female mice, Group 2: morphine 3 mg/kg + naltrexone 3 ng/kg b.i.d. from day 1, Day 7", "result": 6.1},
      {"measurement": "Enhancement of Latency by Naltrexone (tail flick)", "setting": "mice [2]; female mice, Group 2: morphine 3 mg/kg + naltrexone 3 ng/kg b.i.d. from day 1, Day 10", "result": 4.4},
      {"measurement": "Enhancement of Latency by Naltrexone (tail flick)", "setting": "mice [2]; female mice, Group 2: morphine 3 mg/kg + naltrexone 3 ng/kg b.i.d. from day 1, Day 11, single bolus 10 μg/kg naltrexone in addition", "result": "−1.0"},
      {"measurement": "Enhancement of Latency by Naltrexone (tail flick)", "setting": "mice [2]; female mice, Group 3: morphine 3 mg/kg + naltrexone 30 ng/kg b.i.d. from day 1, Day 1", "result": 12.4},
      {"measurement": "Enhancement of Latency by Naltrexone (tail flick)", "setting": "mice [2]; female mice, Group 3: morphine 3 mg/kg + naltrexone 30 ng/kg b.i.d. from day 1, Day 3", "result": 10.7},
      {"measurement": "Enhancement of Latency by Naltrexone (tail flick)", "setting": "mice [2]; female mice, Group 3: morphine 3 mg/kg + naltrexone 30 ng/kg b.i.d. from day 1, Day 5", "result": 6.9},
      {"measurement": "Enhancement of Latency by Naltrexone (tail flick)", "setting": "mice [2]; female mice, Group 3: morphine 3 mg/kg + naltrexone 30 ng/kg b.i.d. from day 1, Day 7", "result": 2.4},
      {"measurement": "Enhancement of Latency by Naltrexone (tail flick)", "setting": "mice [2]; female mice, Group 3: morphine 3 mg/kg + naltrexone 30 ng/kg b.i.d. from day 1, Day 10", "result": 9.3},
      {"measurement": "Enhancement of Latency by Naltrexone (tail flick)", "setting": "mice [2]; female mice, Group 3: morphine 3 mg/kg + naltrexone 30 ng/kg b.i.d. from day 1, Day 11, single bolus 10 μg/kg naltrexone in addition", "result": "−0.7"},
      {"measurement": "Enhancement of Latency by Naltrexone (tail flick)", "setting": "mice [2]; female mice, Group 4: morphine 3 mg/kg + naltrexone 300 ng/kg b.i.d. from day 1, Day 1", "result": 15.0},
      {"measurement": "Enhancement of Latency by Naltrexone (tail flick)", "setting": "mice [2]; female mice, Group 4: morphine 3 mg/kg + naltrexone 300 ng/kg b.i.d. from day 1, Day 3", "result": 10.3},
      {"measurement": "Enhancement of Latency by Naltrexone (tail flick)", "setting": "mice [2]; female mice, Group 4: morphine 3 mg/kg + naltrexone 300 ng/kg b.i.d. from day 1, Day 5", "result": 1.9}
    ]}
  ]
}
